Measured values: ChEMBL document CHEMBL3272307, “Imidazo(1,2-c)pyrimidine nucleosides. Synthesis and biological evaluation of certain 1-(beta-D-arabinofuranosyl)imidazo(1,2-c)pyrimidines” (1976)
Converted amounts (≈) assume the structure as drawn. The source made the active and inactive calls. The rule behind the calls is not given here.

Legend:
KB = assay: Antiviral activity against Rhinovirus type 13 infected in human KB cells assessed as inhibition of virus-induced cytopathic effect at 1 to 1000 ug/ml after 72 hrs; type: functional, cell-based; conditions: Human rhinovirus A13
Human alphaherpesvirus 1 = assay: Antiviral activity against Herpes simplex virus 1 infected in human KB cells assessed as inhibition of virus induced cytopathic effects at 1 to 1000 ug/ml after 72 hrs; type: functional, organism-based
Escherichia coli = assay: Antimicrobial activity against Escherichia coli clinical isolate at 0.005 to 0.4 umol/ml after 24 hrs by broth dilution assay; type: functional, organism-based
Klebsiella pneumoniae = assay: Antimicrobial activity against Klebsiella pneumoniae clinical isolate at 0.005 to 0.4 umol/ml after 24 hrs by broth dilution assay; type: functional, organism-based
Staphylococcus aureus [1] = assay: Antimicrobial activity against Staphylococcus aureus clinical isolate at 0.005 to 0.4 umol/ml after 24 hrs by broth dilution assay; type: functional, organism-based
[2] = tested on: Trichophyton mentagrophytes; assay: Antimicrobial activity against Trichophyton mentagrophytes clinical isolate at 0.005 to 0.4 umol/ml after 48 hrs by broth dilution assay; type: functional, organism-based
Proteus mirabilis = assay: Antimicrobial activity against Proteus mirabilis clinical isolate at 0.005 to 0.4 umol/ml after 24 hrs by broth dilution assay; type: functional, organism-based
Human respirovirus 3 = assay: Antiviral activity against Parainfluenza virus type 3 infected in human KB cells assessed as inhibition of virus-induced cytopathic effect at 1 to 1000 ug/ml after 72 hrs; type: functional, organism-based
Candida albicans = assay: Antimicrobial activity against Candida albicans clinical isolate at 0.005 to 0.4 umol/ml after 24 hrs by broth dilution assay; type: functional, organism-based
[3] = tested on: Trichophyton mentagrophytes; assay: Antimicrobial activity against Trichophyton mentagrophytes clinical isolate after 48 hrs by broth dilution assay; type: functional
Staphylococcus aureus [4] = assay: Antimicrobial activity against Staphylococcus aureus clinical isolate after 24 hrs by broth dilution assay; type: functional

With C[Si](C)(C)Oc1nc(Cl)cc2nccn12 the Activity (KB) was “inactive”, the Activity (Human alphaherpesvirus 1) was “inactive” and the Activity (Escherichia coli) was “inactive”. For the same compound, the Activity (Klebsiella pneumoniae) was “inactive”, the Activity (Staphylococcus aureus [1]) was “inactive” and the Activity [2] was “inactive”. The Activity (Proteus mirabilis) was “inactive”, the Activity (Human respirovirus 3) was “inactive” and the Activity (Candida albicans) was “inactive”.
For O=c1nc(Cl)cc2n([C@@H]3O[C@H](COCc4ccccc4)[C@@H](OCc4ccccc4)[C@@H]3OCc3ccccc3)ccn12, the Activity (KB) was “inactive”, the Activity (Human alphaherpesvirus 1) was “inactive” and the Activity (Escherichia coli) was “inactive”. For the same compound, the Activity (Klebsiella pneumoniae) was “inactive”, the Activity (Staphylococcus aureus [1]) was “inactive” and the Activity [2] was “inactive”. The Activity (Proteus mirabilis) was “inactive”, the Activity (Human respirovirus 3) was “inactive” and the Activity (Candida albicans) was “inactive”.
For O=c1nccc2n([C@@H]3O[C@H](CO)[C@@H](O)[C@@H]3O)ccn12, the Activity (KB) was “inactive”, the Activity (Human alphaherpesvirus 1) was “inactive” and the Activity (Escherichia coli) was “inactive”. The Activity (Klebsiella pneumoniae) was “inactive”, the Activity (Staphylococcus aureus [1]) was “inactive” and the Activity [2] was “inactive”. The Activity (Proteus mirabilis) was “inactive”, the Activity (Human respirovirus 3) was “inactive” and the Activity (Candida albicans) was “inactive”.
In the case of Nc1cc2n([C@@H]3O[C@H](COCc4ccccc4)[C@@H](OCc4ccccc4)[C@@H]3OCc3ccccc3)ccn2c(=O)n1, the Activity (KB) is reported as “Active”, the MIC [3] is reported as 40 µM (≈ 22.1 µg/mL) and the Activity (Human alphaherpesvirus 1) is reported as “inactive”. The Activity (Escherichia coli) was “inactive”, the Activity (Klebsiella pneumoniae) was “inactive” and the MIC (Staphylococcus aureus [4]) was 160 µM (≈ 88.4 µg/mL). The Activity (Proteus mirabilis) was “inactive”, the Activity (Human respirovirus 3) was “inactive” and the Activity (Candida albicans) was “inactive”.
In the case of Nc1cc2n([C@@H]3O[C@H](CO)[C@@H](O)[C@@H]3O)ccn2c(=O)n1, the Activity (KB) is reported as “inactive”, the Activity (Human alphaherpesvirus 1) is reported as “inactive” and the Activity (Escherichia coli) is reported as “inactive”. The Activity (Klebsiella pneumoniae) was “inactive”, the Activity (Staphylococcus aureus [1]) was “inactive” and the Activity [2] was “inactive”. The Activity (Proteus mirabilis) was “inactive”, the Activity (Human respirovirus 3) was “inactive” and the Activity (Candida albicans) was “inactive”.
For O=c1nccc2n([C@@H](CO)OC(CO)CO)ccn12, the Activity (KB) was “inactive”, the Activity (Human alphaherpesvirus 1) was “inactive” and the Activity (Escherichia coli) was “inactive”. For the same compound, the Activity (Klebsiella pneumoniae) was “inactive”, the Activity (Staphylococcus aureus [1]) was “inactive” and the Activity [2] was “inactive”. The Activity (Proteus mirabilis) was “inactive”, the Activity (Human respirovirus 3) was “inactive” and the Activity (Candida albicans) was “inactive”.
With Cl[C@H]1O[C@H](COCc2ccccc2)[C@@H](OCc2ccccc2)[C@@H]1OCc1ccccc1 the Activity (KB) was “inactive”, the Activity (Human alphaherpesvirus 1) was “inactive” and the Activity (Escherichia coli) was “inactive”. For the same compound, the Activity (Klebsiella pneumoniae) was “inactive”, the Activity (Staphylococcus aureus [1]) was “inactive” and the Activity [2] was “inactive”. For the same compound, the Activity (Proteus mirabilis) was “inactive”, the Activity (Human respirovirus 3) was “inactive” and the Activity (Candida albicans) was “inactive”.
In the case of O=c1nccc2n([C@@H]3O[C@H](COCc4ccccc4)[C@@H](OCc4ccccc4)[C@@H]3OCc3ccccc3)ccn12, the Activity (KB) is reported as “Active”, the MIC [3] is reported as 40 µM (≈ 21.5 µg/mL) and the Activity (Human alphaherpesvirus 1) is reported as “inactive”. For the same compound, the Activity (Escherichia coli) was “inactive”, the Activity (Klebsiella pneumoniae) was “inactive” and the MIC (Staphylococcus aureus [4]) was 160 µM (≈ 86 µg/mL). For the same compound, the Activity (Proteus mirabilis) was “inactive”, the Activity (Human respirovirus 3) was “inactive” and the Activity (Candida albicans) was “inactive”.
